In US4990613A, “(1R,5S,6S)-2-[(6,7-dih ydro-5H-pyrazolo[1,2-a][1,2,4]triazolium-6-yl)]thio-6-[R-1-hydroxyethyl]- 1-methyl-carbapenem-3-carboxylate and intermediate therefor” (Lederle (Japan), Ltd., priority 1987, dated 1991):

Key:
[1] = tested on: C. freundii resistant strains; assay: Sensitivity test against clinical isolates, C. freundii resistant strains; format: cell-based; conditions: CFIX/CTX resistant strains
Method: Cefixime (CFIX) (50 to >100 μg/ml)
Cefotaxime (CTX) (50 to >100 μg/ml)
The tests were carried out in the same manner as described above Test 1.

[2] = design: species or system male mice of CrjCD(SD) type; conditions: mouse, in vivo, sc, 500 mg/kg
Method: Toxicological studies have been carried out using a group of 10 male mice of CrjCD(SD) type weighing from 20 to 23 grams. A solution containing the carbapenem compound (15) of the present invention obtained by Example 6 was administered subcutaneously to the mice and subjected to observations for one week.

[3] = tested on: P. aeruginosa resistant strains; assay: Sensitivity test against clinical isolates, P. aeruginosa resistant strains; format: cell-based; conditions: 54 resistant strains
Method: It is noted here that the 54 strains have been chosen because there have been the strains in duplicate with the agents. ______________________________________ Ceftazidime (CAZ) (25 to 100 μg/ml) 21 strains Cefsulodine (CFS) (25 to >100 μg/ml) 23 strains Piperacilin (PIPC) (25 to >100 μg/ml) 15 strains Gentamycin (GM) (25 to >100 μg/ml) 21 strains Amikacin (AMK) (25 to >100 μg/ml) 26 strains Ofloxacin (OFLX) (25 to >100 μg/ml) 4 strains ______________________________________
A minimum inhibitory concentration (MIC) was determined in substantially the same manner as the test procedures II above using the 54 strains of P. aeruginosa having an anti-Pseudomonas resistance.

[4] = tested on: Swine Kidney Dehydropeptidase-I (DHP-I); assay: Hydrolysis activity against DHP-I enzyme substrate by late assay; format: in vitro ADME; conditions: final substrate concentration 100 μM, 10 minutes, pH 7.1
Method: The swine kidney (8 kg) was homogenized and an enzyme protein was allowed to precipitate. After a connective lipid was removed with acetone, the resultant material was made soluble by treatment with butanol and purified in the order by the ammonium sulfate fraction method, thereby producing DPH-I enzyme from a 75% ammonium sulfate fraction.
The DHP-I enzyme was then adjusted to give an enzyme concentration of 25 mg/10 ml (phosphate buffer, pH 7.1), and divided into 1 ml portions. The portions were frozen and stored at -40° C. or less until use.
As control compounds were employed glycyl dehydrophenylalanine (Gl-dh-Ph) and imipenem, and they were adjusted in situ each to give the concentration of 177 μM with the same sodium phosphate buffer solution.
To 1.2 ml of a 50 mM sodium phosphate buffer solution (substrate) containing 177 μM of each of Gh-dh-Ph and imipenem as the control compounds was added 0.2 ml of the DHP-I enzyme solution (25 mg/10 ml) prepared above in the final substrate concentration of 100 μM. The solution was then incubated at […] for 10 minutes. An initial velocity of hydrolysis of the substrate was measured from a decrease in absorbency at a particular λmax of each of the substrates.
A blank test was conducted in substantially the same manner as above by adding 0.2 ml of the sodium phosphate buffer solution (pH 7.1) to 1.2 ml of the above substrate.

physchem = conditions: amorphous solid storage
[5] = over a period of ten days
[6] = tested on: Serratia marcescens IAM1184; assay: Antibacterial test, agar plate dilution method; conditions: 37° C., 18 hours, MH agar
[7] = tested on: Morganella morganii IFO3848; assay: Antibacterial test, agar plate dilution method; conditions: 37° C., 18 hours, MH agar
[8] = tested on: Micrococcus luteus ATCC9341; assay: Antibacterial test, agar plate dilution method; conditions: 37° C., 18 hours, MH agar
[9] = tested on: Staphylococcus aureus MS352; assay: Antibacterial test, agar plate dilution method; conditions: 37° C., 18 hours, MH agar
[10] = tested on: Bacillus subtilis ATCC6633; assay: Antibacterial test, agar plate dilution method; conditions: 37° C., 18 hours, MH agar
[11] = tested on: Providencia rettgeri IFO 3850; assay: Antibacterial test, agar plate dilution method; conditions: 37° C., 18 hours, MH agar
[12] = tested on: Enterobacter aerougenes ATCC13048; assay: Antibacterial test, agar plate dilution method; conditions: 37° C., 18 hours, MH agar
[13] = tested on: Klebsiella pneumoniae PCI-602; assay: Antibacterial test, agar plate dilution method; conditions: 37° C., 18 hours, MH agar
Salmonella typhi 901 = assay: Antibacterial test, agar plate dilution method; format: cell-based; conditions: 37° C., 18 hours, MH agar
[14] = tested on: Pseudomonas aeruginosa NCTC 10490; assay: Antibacterial test, agar plate dilution method; conditions: 37° C., 18 hours, MH agar
[15] = tested on: Streptococcus pyogenes Cook; assay: Antibacterial test, agar plate dilution method; conditions: 37° C., 18 hours, MH agar
[16] = tested on: Pseudomonas aeruginosa IFO 3445; assay: Antibacterial test, agar plate dilution method; conditions: 37° C., 18 hours, MH agar
Proteus vulgaris HX-19 = assay: Antibacterial test, agar plate dilution method; conditions: 37° C., 18 hours, MH agar
Enterobacter cloacae 963 = assay: Antibacterial test, agar plate dilution method; conditions: 37° C., 18 hours, MH agar
[17] = tested on: Salmonella schottmuelleri 8006; assay: Antibacterial test, agar plate dilution method; conditions: 37° C., 18 hours, MH agar
[18] = tested on: Salmonella typhimurium IID971; assay: Antibacterial test, agar plate dilution method; conditions: 37° C., 18 hours, MH agar
[19] = tested on: Escherichia coli NIHJ JC-2; assay: Antibacterial test, agar plate dilution method; conditions: 37° C., 18 hours, MH agar
[20] = tested on: Escherichia coli K12 C600; assay: Antibacterial test, agar plate dilution method; format: cell-based; conditions: 37° C., 18 hours, MH agar
[21] = tested on: Staphylococcus aureus FDA 209P JC-1; assay: Antibacterial test, agar plate dilution method; conditions: 37° C., 18 hours, MH agar
[22] = tested on: Salmonella enteritidis G14; assay: Antibacterial test, agar plate dilution method; conditions: 37° C., 18 hours, MH agar
[23] = tested on: Proteus mirabilis IFO3849; assay: Antibacterial test, agar plate dilution method; conditions: 37° C., 18 hours, MH agar
[24] = tested on: Salmonella paratyphi 1015; assay: Antibacterial test, agar plate dilution method; format: cell-based; conditions: 37° C., 18 hours, MH agar
[25] = tested on: Providencia rettgeri GN 4430; assay: Antibacterial activity against clinically isolated β-lactamase producing strains; format: cell-based; conditions: cephalosporinase producing strain, 18 to 20 hours
Method: (§1) A solution of a cephalosporinase producing strain stored by Episome Research Institute, which was prepared by incubating the strain in a sensitivity test broth (STB; product of Nissui K.K.) for 18 hours, was diluted with a fresh STB solution to contain 10^5 cells per milliliter and the diluted solution was then inoculated as spots with a microplanter on a sensitivity disk agar-N (SDA; product of Nissui K.K.) containing a test compound. The disk agar was then incubated for 18 to 20 hours. A minimum inhibitory concentration was determined as a minimum concentration in which the test microorganism had no longer grown after a 18 to 20 hour incubation.

Escherichia coli No. 96 = assay: as above; format: cell-based; conditions: cephalosporinase producing strain, 18 to 20 hours
Method: as §1

[26] = tested on: Enterobacter cloacae GN 7467; assay: as above; format: cell-based; conditions: cephalosporinase producing strain, 18 to 20 hours
Method: as §1

[27] = tested on: Serratia marcescens GN 10857; assay: as above; format: cell-based; conditions: cephalosporinase producing strain, 18 to 20 hours
Method: as §1

Proteus vulgaris GN 4413 = assay: as above; format: cell-based; conditions: cephalosporinase producing strain, 18 to 20 hours
Method: as §1

Proteus morganii GN 5375 = assay: as above; format: cell-based; conditions: cephalosporinase producing strain, 18 to 20 hours
Method: as §1

[28] = tested on: Pseudomonas cepacia GN 11164; assay: as above; format: cell-based; conditions: cephalosporinase producing strain, 18 to 20 hours
Method: as §1

[29] = tested on: Pseudomonas aeruginosa GN 918; assay: as above; format: cell-based; conditions: cephalosporinase producing strain, 18 to 20 hours
Method: as §1

Proteus morganii GN 5407 = assay: as above; format: cell-based; conditions: cephalosporinase producing strain, 18 to 20 hours
Method: as §1

[30] = tested on: Klebsiella oxytoca GN 10650; assay: as above; format: cell-based; conditions: cephalosporinase producing strain, 18 to 20 hours
Method: as §1

[31] = tested on: Pseudomonas aeruginosa GN 10362; assay: as above; format: cell-based; conditions: cephalosporinase producing strain, 18 to 20 hours
Method: as §1

Proteus vulgaris GN 76 = assay: as above; format: cell-based; conditions: cephalosporinase producing strain, 18 to 20 hours
Method: as §1

[32] = tested on: Escherichia coli No. 1501; assay: as above; format: cell-based; conditions: cephalosporinase producing strain, 18 to 20 hours
Method: as §1

Escherichia coli GN 5482 = assay: as above; format: cell-based; conditions: cephalosporinase producing strain, 18 to 20 hours
Method: as §1

[33] = tested on: Enterobacter cloacae GN 5797; assay: as above; format: cell-based; conditions: cephalosporinase producing strain, 18 to 20 hours
Method: as §1

[34] = tested on: Pseudomonas aeruginosa GN 10367; assay: as above; format: cell-based; conditions: cephalosporinase producing strain, 18 to 20 hours
Method: as §1

[35] = tested on: Enterobacter cloacae GN 7471; assay: as above; format: cell-based; conditions: cephalosporinase producing strain, 18 to 20 hours
Method: as §1

[36] = tested on: Citrobactor freundii GN 7391; assay: as above; format: cell-based; conditions: cephalosporinase producing strain, 18 to 20 hours
Method: as §1

[37] = tested on: Providencia rettgeri GN 4762; assay: as above; format: cell-based; conditions: cephalosporinase producing strain, 18 to 20 hours
Method: as §1

Proteus vulgaris GN 7919 = assay: as above; format: cell-based; conditions: cephalosporinase producing strain, 18 to 20 hours
Method: as §1

Serratia marcescens L-65 = assay: as above; format: cell-based; conditions: cephalosporinase producing strain, 18 to 20 hours
Method: as §1

Proteus morganii GN 5307 = assay: as above; format: cell-based; conditions: cephalosporinase producing strain, 18 to 20 hours
Method: as §1

[38] = tested on: Providencia rettgeri GN 5284; assay: as above; format: cell-based; conditions: cephalosporinase producing strain, 18 to 20 hours
Method: as §1

[39] = tested on: Citrobactor freundii GN 346; assay: as above; format: cell-based; conditions: cephalosporinase producing strain, 18 to 20 hours
Method: as §1

Serratia marcescens L-82 = assay: as above; format: cell-based; conditions: cephalosporinase producing strain, 18 to 20 hours
Method: as §1

Proteus vulgaris OX-19 = assay: Antibacterial test, agar plate dilution method; conditions: 37° C., 18 hours, MH agar
[40] = tested on: Staphylococcus aureus Terajima; assay: Antibacterial test, agar plate dilution method; conditions: 37° C., 18 hours, MH agar

C[C@@H](O)[C@H]1C(=O)N2C(C(=O)[O-])=C(SC3Cn4cnc[n+]4C3)[C@H](C)[C@H]12 (stereo partly drawn) [Compound 15, 6-[(R)-1-hydroxyethy]-1-methyl-2-(5H-pyrazolo[1,2-a]triazolinium-6-yl) thio-carbapenem-3-carboxylic acid]
approximately 98%: test microorganisms whose growth is inhibited ([1]; concentration of 0.78 μg/ml) | test microorganisms whose growth is inhibited ([3]; concentration of […])
alive without any abnormal observations: survival and abnormal observations [2]
all the test microorganisms: test microorganisms whose growth is inhibited ([1]; concentration of 1.56 μg/ml) | test microorganisms whose growth is inhibited ([3]; concentration of 12.5 μg/ml)

NCC(=O)NC(=Cc1ccccc1)C(=O)O [Gl-dh-Ph, glycyl dehydrophenylalanine]
17.4 µM/min: initial velocity of hydrolysis against DHP-I [4]

C[C@@H](O)[C@H]1C(=O)N2C(C(=O)[O-])=C(SC3Cn4cnc[n+]4C3)[C@H](C)[C@H]12 (stereo partly drawn) [amorphous form]
~40%: remaining at 240 h (physchem)

C[C@@H](O)[C@H]1C(=O)N2C(C(=O)[O-])=C(SC3Cn4cnc[n+]4C3)[C@H](C)[C@H]12 (stereo partly drawn) [crystalline form]
no appreciable loss of potency: loss of potency on storage [5]

(1R, 5S, 6S)-2-[4-pyrazolidinyl]thio-6-[(R)-1-hydroxyethyl]-1-methyl-carbapenem-3-carboxylic acid [Compound 14]
0.025 µg/mL: MIC (Salmonella typhi 901) | MIC [15] | MIC (Escherichia coli No. 96) | MIC [32] | MIC (Escherichia coli GN 5482) | MIC (Proteus vulgaris OX-19) | MIC [40]
0.2 µg/mL: MIC [6] | MIC [11] | MIC [17] | MIC [20] | MIC [22] | MIC [25] | MIC [37] | MIC (Serratia marcescens L-65) | MIC [38]
1.56 µg/mL: MIC [26] | MIC [27] | MIC (Proteus vulgaris GN 4413) | MIC (Proteus morganii GN 5375) | MIC [29] | MIC (Proteus morganii GN 5407) | MIC [31] | MIC (Proteus vulgaris GN 76) | MIC [34] | MIC (Proteus vulgaris GN 7919)
0.1 µg/mL: MIC [7] | MIC [8] | MIC [9] | MIC [10] | MIC (Proteus vulgaris HX-19) | MIC (Enterobacter cloacae 963) | MIC [18] | MIC [30] | MIC [33] | MIC [35] | MIC (Serratia marcescens L-82)
0.39 µg/mL: MIC [12] | MIC [23] | MIC [24] | MIC [28] | MIC (Proteus morganii GN 5307)
0.78 µg/mL: MIC [14] | MIC [16] | MIC [36] | MIC [39]
0.05 µg/mL: MIC [13] | MIC [19] | MIC [21]
